Patent US20110195924A1, “Methods of Inhibiting the Interaction Between S100P and the Receptor for Advanced Glycation End-Products” (priority 2008, published 2011)
Entries after “also recorded” stand apart in the source; their conditions may differ.

Key:
SW480 colon cells = assay: SW480 colon cell proliferation; assay type: cell-based; conditions: cromolyn 100 μM, up to three days
Experimental: SW480 colon cells were cultured for up to three days in the presence of cromolyn (100 μM), and cell proliferation was analyzed. *, P<0.05.

S100B with RAGE = target: T1, S100B with RAGE (Homo sapiens, UniProt P04271); assay: ELISA of S100B binding to RAGE (sRAGE coated plate)
T1 sequence (P04271 1-92): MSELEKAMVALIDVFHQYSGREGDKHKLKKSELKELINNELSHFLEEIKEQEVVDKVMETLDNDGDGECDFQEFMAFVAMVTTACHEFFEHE
Description: After removing un-bound S100B by washing with detergent, bound S100B and RAGE complex was quantified by adding HRP labeled antibody against S100B.

S100P binding with RAGE = target: T2, S100P binding with RAGE (Homo sapiens, UniProt P25815); assay: ELISA of S100P binding to RAGE (sRAGE coated plate)
T2 construct: full-length human S100P cDNA (NM_005980) was cloned into the pTrcHis2 vector; His; made in house; host or cells: bacteria (S100P)
T2 sequence (P25815 1-95): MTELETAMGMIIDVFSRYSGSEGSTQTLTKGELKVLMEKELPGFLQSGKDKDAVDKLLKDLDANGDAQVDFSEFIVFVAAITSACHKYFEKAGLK
Experimental: After removing un-bound S100P by washing with detergent, the bound S100P and RAGE complex was quantified by adding HRP labeled antibody against S100P. *, P=0.04 C5 1 μM versus cromolyn 5 μM. Two-tailed two-sample (unpaired) Student's t-tests were used to determine P values.
The plate was washed and the amount of bound S100P was quantitated using anti-S100P antibody.
The binding of S100P to RAGE was determined using an ELISA assay. sRAGE was attached to the dish and recombinant S100P (50 ng) was added with or without the indicated concentrations of cromolyn analogs. The plate was washed and the amount of bound S100P was quantitated using anti-S100P antibody.

SW480 cells = assay: SW480 colon cancer cell invasion (matrigel, transwell); assay type: cell-based; conditions: cromolyn 10 μM and 100 μM, 24 hours
Experimental: SW480 cells were plated on top of a layer of matrigel in a Boyden type chamber (transwell). Media containing 5% FBS was placed in the lower well and the cells were allowed to invade the matrigel layer for 24 hours in the presence of different concentrations of cromolyn.

S100P and RAGE = target: T3, S100P and RAGE (Homo sapiens, UniProt P25815); assay: Co-immunoprecipitation of S100P and RAGE from BxPC-3 cell lysates; assay type: binding; conditions: cromolyn 100 μM
T3 construct: endogenous in cells; host or cells: BxPC-3 cell lysate
T3 sequence (P25815 1-95): T2 sequence (P25815 1-95)
Experimental: Receptor for advanced glycation end products (RAGE) was identified in the immunoprecipitates by immunoblotting with a goat polyclonal anti-RAGE antibody and anti-S100P as an internal control. In the lower panel, one representative blot and densitometric analysis (means and 95% confidence intervals [CIs]) of three independent experiments is shown. *P<0.001, versus IP α-S100P without cromolyn.
For co-immunoprecipitation experiments, BxPC-3 cell lysates were incubated in the absence or presence of cromolyn (100 μM) at 4° C. overnight. S100P was immunoprecipitated using a mouse monoclonal anti-S100P antibody (Transduction Laboratories, San Diego, Calif.) for 6 hours at 4° C. and IgG-immobilized beads (Pierce Biotechnology, Inc. Rockford, Ill.). Antibody-associated proteins were electrophoresed on 10% polyacrylamide gels and electrophoretically transferred to nitrocellulose membranes. Membranes were blocked in PBS/5% milk overnight at 4° C. RAGE was detected using a goat polyclonal anti-RAGE antibody (1:200, Santa Cruz, Santa Cruz, Calif.), and S100P was detected using a goat polyclonal anti-S100P antibody (1:50, R & D systems, Minneapolis, Minn.) by immunoblotting as described in Arumugam, et al., S100P stimulates cell proliferation and survival via receptor for activated glycation end products (RAGE); J. Biol. Chem. 2004 Feb. 13; 279(7):5059-65. Briefly, membranes were incubated in primary antibody for 1 hour at room temperature followed by incubation with horseradish peroxidase-labeled secondary antibody for 30 minutes at room temperature. After a thorough wash in TBS-T buffer (1M Tris-HCL pH 8.3, 3M NaCl, 0.1% Tween-20), antibody-protein complexes were detected by using a chemiluminescent substrate (GE Healthcare Bio-Sciences Corp., Piscataway, N.J.). The intensity of the band was estimated (as density units) using densitometry (GS-250 Molecular Imaging System, Bio-Rad Laboratories, Richmond, Calif.). The experiment was repeated three times. […]

PC3 prostate cells = assay: PC3 prostate cell viability with taxol; assay type: cell-based; conditions: taxol 100 nM, cromolyn 10 μM, 48 hours
Experimental: PC3 prostate cells were plated and treated with taxol (100 nM) either in the presence or absence of cromolyn (10 μM) for 48 hours. Cell viability was analyzed after 48 hours. *, P<0.05.

BxPC-3 cells = assay: BxPC-3 matrigel invasion assay; assay type: cell-based; conditions: 24 hours; for cells invaded, mean: 0 μM 19.3%
Experimental: FIGS. 2A-2D show the effect of cromolyn on pancreatic cancer cell invasion. Panc-1 and BxPC-3 cells were plated in Bio-coat matrigel and control chambers and cultured in serum-free culture media. After 24 hours non-invaded cells in the upper chamber were removed, and cells that invaded onto the lower surface of the membrane were counted from five adjacent fields. […] Data are expressed as the percent invasion through the matrigel matrix and membrane relative to migration through the control membrane. Means and 95% confidence intervals from three independent experiments performed in triplicate are shown. Two-tailed two-sample (unpaired) Student's t-tests were used to determine P values. Panc-1 and BxPC-3 cells were seeded in BIOCOAT matrigel invasion chambers and in control chambers without matrigel (Becton-Dickinson, Bedford, Mass.) according to the manufacturer's protocol. Panc-1 cells were seeded with S100P (100 nM) with or without cromolyn (100 μM), and BxPC-3 cells were seeded with or without cromolyn (1-100 μM). Briefly, 2.0×10^5 cells in 300 μL top solution (serum-free media) were added to each chamber and allowed to invade matrigel for 24 hours at 37° C. in a 5% CO2 atmosphere. The non-invading cells on the upper surface of membrane were removed from the chambers with a cotton swab, and the invading cells on the lower surface of the membrane were fixed and stained using a Diff-Quick stain kit (Becton Dickinson, Bedford, Mass.). After two washes with water, the chambers were allowed to air dry. The numbers of invading cells in five adjacent microscope fields per membrane were counted at 20× magnification to obtain the average number of cells per field. Data are expressed as the percent invasion through the matrigel matrix and membrane relative to the migration through the control membrane. The assays were performed three times.

- interaction of S100B with RAGE (S100B with RAGE): inhibit
- blocking of the interaction / binding of S100P with RAGE (S100P binding with RAGE): blocked; also recorded: able to block
- concentration achieving the same level of S100P inhibition (S100P binding with RAGE; FIG. 7): 5 µM
- co-immunoprecipitation of S100P and RAGE, difference versus control (S100P and RAGE): 25640 density units
- total amount of S100P immunoprecipitated (S100P and RAGE): no effect
- co-immunoprecipitation of S100P and RAGE, mean (S100P and RAGE; control mean 34040): 8410 density units
Structure (SMILES): O=C(O)c1cc(=O)c2c(OCC(O)COc3cccc4oc(C(=O)O)cc(=O)c34)cccc2o1 [cromolyn, disodium 1,3-bis[(2′-carboxylatochromon-5′-yl)oxy]-2-hydroxypropane]
- growth of SW480 cells (SW480 colon cells): reduced growth
- invasiveness of SW480 cells (SW480 cells): reduced the invasiveness
- cell killing effect of taxol on prostate cancer cells (PC3 prostate cells): increased the cell killing effect of taxol
- cells invaded, difference versus 0 μM (BxPC-3 cells; cromolyn 10 μM): 10.0%
- cells invaded, mean (BxPC-3 cells; cromolyn 10 μM): 9.3%
- cells invaded, difference versus 0 μM (BxPC-3 cells; cromolyn 100 μM): 11.7%
- cells invaded, mean (BxPC-3 cells; cromolyn 100 μM): 7.7%
